{"source": "paper PMC3707081", "about": "“Hypothemicin, a fungal natural product, identifies therapeutic targets in Trypanosoma brucei” (eLife, 2013)", "molecular_target": "T1, TbCLK1 (Trypanosoma brucei, UniProt Q382U0)", "T1 construct": "gene Tb11.01.4230; full-length, recombinant from E. coli (pET100)", "T1 sequence (Q382U0 entry or part of it)": "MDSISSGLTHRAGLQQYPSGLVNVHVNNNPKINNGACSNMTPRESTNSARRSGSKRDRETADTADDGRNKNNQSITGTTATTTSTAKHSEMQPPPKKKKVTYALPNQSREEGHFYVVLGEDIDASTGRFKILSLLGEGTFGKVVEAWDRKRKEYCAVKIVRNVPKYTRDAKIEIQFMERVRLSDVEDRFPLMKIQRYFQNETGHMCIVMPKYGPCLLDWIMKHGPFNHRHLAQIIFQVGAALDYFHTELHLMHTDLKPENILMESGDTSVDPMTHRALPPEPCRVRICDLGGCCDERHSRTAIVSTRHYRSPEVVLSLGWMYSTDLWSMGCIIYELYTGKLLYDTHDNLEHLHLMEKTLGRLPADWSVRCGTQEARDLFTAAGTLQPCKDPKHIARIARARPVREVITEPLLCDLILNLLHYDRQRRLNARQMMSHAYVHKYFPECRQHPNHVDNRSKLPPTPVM", "test": "in vitro kinase assay (γ-32P-ATP, myelin basic protein), […] min pre-incubation with […] ATP; also target engagement in intact parasites by competition with probe […]", "type": "biochemical", "data": [{"smiles": "COc1cc(O)c2c(c1)[C@H]1O[C@@H]1C[C@H](O)[C@H](O)C(=O)/C=C\\C[C@H](C)OC2=O", "note": "[compound 1, hypothemycin]", "values": [{"measurement": "IC50", "value": 150, "unit": "nM"}]}]}
